Test results: publication PMC11116414, “Impact of secretin receptor homo-dimerization on natural ligand binding” (Nature Communications, 2024)
No end group written: not given here.

System: cysteine-containing SecR(G264A,I268A) constructs
Assay: Cysteine trapping with SecR(G264A,I268A) cysteine constructs, intact COS-1 cells
Assay type: binding, human
Settings: for Intraloop labeling / Overall labeling: mean ± S.E.M.; for cysteine trapping in ECL3, in words: WT (earlier work) and non-dimerizing SecR
Procedure: In short, 15 µg of each peptide were incubated with 1 mCi of Na^125I for 15 s in borate buffer (pH 9.0) using solid-state N-chlorobenzene sulfonamide (iodination beads), and radioactive peptide products were separated and purified using reversed-phase HPLC, to yield a mono-iodinated peak with a specific radioactivity of 2000 Ci/mmol.
Modified secretin receptor constructs were prepared by mutagenesis of human SecR(G264A,I268A) by introducing cysteine residues to replace each natural residue in the N-terminal stalk region, (extracellular loop 1) ECL1, ECL2, and ECL3 regions of the receptor[21]. Mutagenesis was performed using the QuikChange site-directed mutagenesis kit from Stratagene (La Jolla, CA), with the products verified by direct DNA sequencing.
Cysteine trapping is a technique in which cysteine residues incorporated into distinct positions within a peptide ligand and within its receptor are allowed to form disulfide bonds when two free cysteines are in proximity to each other with necessary distance and geometry. As noted above, this was performed with secretin peptides incorporating cysteines in positions 2, 5, 6 and 7[20],[21], and with a series of SecR mutants incorporating cysteines in all extracellular domains (75 distinct constructs in a TM4 mutant non-dimerizing SecR background). COS-1 cells were grown to approximate 85% confluence in 24-well tissue culture plates, and transfected with cysteine mutant receptor constructs using the PEI method. Assays were started by washing the cells with DMEM containing 5% Fetal Clone II before being incubated with 200 μl radiolabeled cysteine-containing probes (approximately 100,000 cpm per well) for 1.5 h at room temperature. The assays were terminated by washing the cells with ice-cold PBS, pH 7.4, and mixing with 60 µl SDS Laemmli sample buffer not containing dithiothreitol (DTT). Lysates were run on 10% SDS-polyacrylamide gels. Gels were then dried, and bands of interest were visualized by autoradiography, and specific bands were identified, and intensities quantified using ImageJ. Sites having labeling above background were determined using one-way ANOVA with Dunnett’s post-test, with P < 0.001 considered to be significant. The apparent molecular weights of the receptor bands were determined by interpolation with the mobility of the appropriate ProSieve protein markers.

[1] = A292C, ECL2, n = 3-5, Cys5 significant (P < 0.0001)
[2] = F279C, ECL2, % of highest-labeled residue across all constructs, n = 4 (Cys2), 5 (Cys5, Cys6), 3 (Cys7)
[3] = L374C, ECL3, n = 3-5, Cys5, Cys6, Cys7 significant (P < 0.001)
[4] = M366C, ECL3, n = 3-5, Cys5 significant (P < 0.0001)
[5] = W296C, ECL2, n = 3-5, Cys6 significant (P = 0.0003)

Cys^7-[Tyr^10]secretin(1-27) (HSDGTFCSEYSRLREGARLQRLLQGLV; not fully specified; ends and bridges not checked; also: radioiodinated; UniProt P09683 28-54, looked up, variant T7C L10Y) [Cys^7-Sec, cysteine-containing secretin agonist probe, radioiodinated for cysteine trapping]
Intraloop labeling (A290C, ECL2, n = 3-5): < 1 percentage | Overall labeling (A290C, ECL2, n = 3-5): < 1 percentage | Intraloop labeling (A292C, ECL2, n = 3-5): < 1 percentage | Overall labeling [1]: < 1 percentage | Intraloop labeling (A359C, ECL3, n = 3-5): 85.3±8.6 percentage | Overall labeling (A359C, ECL3, n = 3-5, Cys7 significant (P = 0.0004)): 85.3±8.6 percentage | Intraloop labeling (A365C, ECL3, n = 3-5): 66.4±17.1 percentage | Overall labeling (A365C, ECL3, n = 3-5, Cys5 significant (P < 0.0001)): 66.4±17.1 percentage | Intraloop labeling (D282C, ECL2, n = 3-5): < 1 percentage | Overall labeling (D282C, ECL2, n = 3-5): < 1 percentage | Intraloop labeling (D287C, ECL2, n = 3-5): 15.7±15.6 percentage | Intraloop labeling (E363C, ECL3, n = 3-5): < 1 percentage | Overall labeling (E363C, ECL3, n = 3-5): < 1 percentage | Intraloop labeling (E367C, ECL3, n = 3-5): < 1 percentage | Overall labeling (E367C, ECL3, n = 3-5): < 1 percentage | Intraloop labeling (E373C, ECL3, n = 3-5): < 1 percentage | Overall labeling (E373C, ECL3, n = 3-5): < 1 percentage | Intraloop labeling (F279C, ECL2, % of highest labeling within loop, n = 4 (Cys2), 5 (Cys5, Cys6), 3 (Cys7)): < 1 percentage | Overall labeling [2]: < 1 percentage | Intraloop labeling (F358C, ECL3, n = 3-5): 21.6±20.7 percentage | Overall labeling (F358C, ECL3, n = 3-5): 21.6±20.7 percentage | Intraloop labeling (F360C, ECL3, n = 3-5): 23.9±23.4 percentage | Overall labeling (F360C, ECL3, n = 3-5): 23.9±23.4 percentage | Intraloop labeling (F372C, ECL3, n = 3-5): 24.8±24.7 percentage | Overall labeling (F372C, ECL3, n = 3-5): 24.8±24.7 percentage | Intraloop labeling (G284C, ECL2, n = 3-5): < 1 percentage | Overall labeling (G284C, ECL2, n = 3-5): < 1 percentage | Intraloop labeling (I288C, ECL2, n = 3-5): 82.9±8.6 percentage | Overall labeling (I288C, ECL2, n = 3-5, Cys5 and Cys7 significant (P < 0.0001)): 71.4±10.6 percentage | Intraloop labeling (I294C, ECL2, n = 3-5): < 1 percentage | Overall labeling (I294C, ECL2, n = 3-5): < 1 percentage | Intraloop labeling (I297C, ECL2, n = 3-5): < 1 percentage | Overall labeling (I297C, ECL2, n = 3-5): < 1 percentage | Intraloop labeling (I368C, ECL3, n = 3-5): < 1 percentage | Overall labeling (I368C, ECL3, n = 3-5): < 1 percentage | Intraloop labeling (L280C, ECL2, n = 3-5): < 1 percentage | Overall labeling (L280C, ECL2, n = 3-5): < 1 percentage | Intraloop labeling (L374C, ECL3, n = 3-5): 88.6±11.4 percentage | Overall labeling [3]: 88.6±11.4 percentage | Intraloop labeling (M366C, ECL3, n = 3-5): 55.6±22.3 percentage | Overall labeling [4]: 55.6±22.3 percentage | Intraloop labeling (N291C, ECL2, n = 3-5): < 1 percentage | Overall labeling (N291C, ECL2, n = 3-5): < 1 percentage | Intraloop labeling (P362C, ECL3, n = 3-5): < 1 percentage | Overall labeling (P362C, ECL3, n = 3-5): < 1 percentage | Intraloop labeling (Q369C, ECL3, n = 3-5): < 1 percentage | Overall labeling (Q369C, ECL3, n = 3-5): < 1 percentage | Intraloop labeling (S293C, ECL2, n = 3-5): < 1 percentage | Overall labeling (S293C, ECL2, n = 3-5): < 1 percentage | Intraloop labeling (S361C, ECL3, n = 3-5): < 1 percentage | Overall labeling (S361C, ECL3, n = 3-5): < 1 percentage | Intraloop labeling (V283C, ECL2, n = 3-5): < 1 percentage | Overall labeling (V283C, ECL2, n = 3-5): < 1 percentage | Overall labeling (W286C, ECL2, n = 3-5): < 1 percentage | Intraloop labeling (W295C, ECL2, n = 3-5): 92.5±7.5 percentage | Intraloop labeling (W296C, ECL2, n = 3-5): < 1 percentage | Overall labeling [5]: < 1 percentage | cysteine trapping in ECL3, in words: labeled ECL3 residues

Cys^6-[Tyr^10]secretin(1-27) (HSDGTCTSEYSRLREGARLQRLLQGLV; not fully specified; ends and bridges not checked; also: radioiodinated; UniProt P09683 28-54, looked up, variant F6C L10Y) [Cys^6-Sec, cysteine-containing secretin agonist probe, radioiodinated for cysteine trapping]
Intraloop labeling (A292C, ECL2, n = 3-5): 29.1 ±17.0 percentage | Overall labeling [1]: 24.9±17.2 percentage | Intraloop labeling (D282C, ECL2, n = 3-5): < 1 percentage | Overall labeling (D282C, ECL2, n = 3-5): < 1 percentage | Intraloop labeling (D364C, ECL3, n = 3-5): 17.1±8.2 percentage | Overall labeling (D364C, ECL3, n = 3-5, Cys5 significant (P < 0.0001)): 16.2±8.4 percentage | Intraloop labeling (E367C, ECL3, n = 3-5): 40.8±17.2 percentage | Overall labeling (E367C, ECL3, n = 3-5): 35.5±14.9 percentage | Intraloop labeling (E373C, ECL3, n = 3-5): 19.9±17.3 percentage | Overall labeling (E373C, ECL3, n = 3-5): 13.9±11.4 percentage | Overall labeling [2]: < 1 percentage | Intraloop labeling (F358C, ECL3, n = 3-5): 16.4±12.8 percentage | Overall labeling (F358C, ECL3, n = 3-5): 10.2±6.9 percentage | Intraloop labeling (F371C, ECL3, n = 3-5): 11.4±11.0 percentage | Intraloop labeling (F372C, ECL3, n = 3-5): 19.0±15.7 percentage | Overall labeling (F372C, ECL3, n = 3-5): 13.6±10.3 percentage | Overall labeling (G284C, ECL2, n = 3-5): < 1 percentage | Intraloop labeling (I294C, ECL2, n = 3-5): 10.5±9.5 percentage | Overall labeling (I294C, ECL2, n = 3-5): 10.3±9.5 percentage | Intraloop labeling (I297C, ECL2, n = 3-5): 30.1±18.4 percentage | Intraloop labeling (L374C, ECL3, n = 3-5): 94.8±5.2 percentage | Overall labeling [3]: 78.8±9.2 percentage | Intraloop labeling (M366C, ECL3, n = 3-5): 56.2±16.4 percentage | Overall labeling [4]: 48.0±17.7 percentage | Intraloop labeling (N289C, ECL2, n = 3-5): 15.8±14.5 percentage | Overall labeling (N289C, ECL2, n = 3-5): 15.7±14.5 percentage | Intraloop labeling (N291C, ECL2, n = 3-5): < 1 percentage | Overall labeling (N291C, ECL2, n = 3-5): < 1 percentage | Intraloop labeling (Q369C, ECL3, n = 3-5): 13.0±12.7 percentage | Intraloop labeling (V283C, ECL2, n = 3-5): 15.8±13.9 percentage | Overall labeling (V283C, ECL2, n = 3-5): 15.5±13.9 percentage | Intraloop labeling (W286C, ECL2, n = 3-5): 24.4±19.3 percentage | Overall labeling (W286C, ECL2, n = 3-5): 13.4±8.9 percentage | Intraloop labeling (W295C, ECL2, n = 3-5): 34.2±0.1 percentage | Overall labeling (W295C, ECL2, n = 3-5, Cys2, Cys5, Cys7 significant (P < 0.0001)): 34.1±17.2 percentage | Intraloop labeling (W296C, ECL2, n = 3-5): 80.2±19.8 percentage | Overall labeling [5]: 68.0±20.5 percentage | cysteine trapping in ECL3, in words: labeled ECL3 residues
